# In patent publication US7060714B2, “Fungal strain acremonium sp.MT70646(KCTC 0916BP), novel compounds produced by this strain and their use” (Korea Research Institute of Bioscience and Biotechnology, priority 1999, dated 2006):
# Experiments:
# B16 melanoma cells = assay: Invasion of B16 melanoma cells (Matrigel invasion); format: cell-based; conditions: for Relative Rate of Invasion (%): control 100; for No. of Cells Invaded: control 420.7 ± 15.6
# Procedure: MT70646 (KCTC 0916BP) against the invasion of B16 melanoma cells through the synthetic basal membranes. […]
# BioCoat invasion chamber (precoated Matrigel) was swelled for 30 min by serum-free DMEM and the chamber was placed into the well of 24 well plate which contains 600 μL of HT 1080 conditioned medium. And then 450 μL of melanoma cell suspension (4.5×10^3 cells) in DMEM medium containing 0.5% albumin was added into the chamber. After adding 50 μL of test sample, the chamber was incubated for 22–24 hr at 37° C. in a 5% CO2 atmosphere. And the filter of chamber was detached and fixed with methanol. After staining the filter with 5% crystal violet and the cells on the upper surface of the filters were removed by wiping them with a cotton swab. The cells invaded through the Matrigel and filter to the lower surface were counted under a microscope.
# Solubility in solvents = format: physicochemical
# Source text: The results of infrared (IR) absorption spectrum; ^1H-NMR and ^13C-NMR spectrum; and HMBC NMR spectrum analyses are shown in the Tables 2 & 3 and FIGS. 1–3.
# [1] = test system: human umbilical vein enothelial cell (HUVEC); assay: Angiogenesis: HUVEC tube formation on Matrigel; format: cell-based; conditions: 18 hr, read-out: Inhibitory activity against the angiogenesis (tube formation); for inhibition at 1 µg/mL: 1 μg/mL; for inhibition at 3 µg/mL: 3 μg/mL; for inhibition at 10 µg/mL: 10 μg/mL
# Procedure: After thawing Matrigel on ice, 40 μL of the Matrigel was added into each wells of a 96 well plate and placed for 30 min at 37° C. to solidify the Matrigel. Then, 180 μL of human umbilical vein enothelial cell (HUVEC) suspension (2×10^4 cells) was added made into each well of the solidified Matrigel and incubated for 18 hr in a 5% CO2 atmosphere at 37° C. The degree of tube formation was observed by microscope.
# heparinase = molecular target: T1, heparinase (Pedobacter heparinus, UniProt Q05819); assay: Inhibition of heparinase (heparin / antithrombin III / factor Xa chromogenic assay); format: biochemical, Flavobacterium heparinum
# T1 construct: the heparinase was isolated from Flavobacterium heparinum; purchased Sigma Co. Ltd. (U.S.A.); host or cells: isolated from Flavobacterium heparinum
# Procedure: To 17 μL of reaction buffer (14 mM sodium acetate and 1.4 mM CaCl2, pH 7.0) containing 10 ng of heparin were added 3 μL of test sample along with 0.2 unit of heparinase and placed at room temperature for 15 min. Then, 25 μL of antithrombin III solution was added and allowed to react for 2 min at room temperature and added with 25 μL of factor Xa solution. In one minute, 25 μL of factor Xa substrate was added to react for 5–10 min and then terminated the reaction by adding 25 μL of glacial acetic acid. The light absorbency was measured at 410 nm. The rate of enzyme inhibition was calculated as in the following equation 1, wherein IC50 was the concentration of the inhibitor when the rate of enzyme inhibition reached 50%. Inhibition (%)=(A−C)/(A−B)×100 [Equation 1]
# In the above equation 1, A represents the light absorbance of the reagent after reaction when the inhibitor was not added, B represents the light absorbance of the reagent after reaction when enzyme solution was not added, and C represents the light absorbance of the reagent after reaction when the inhibitor was added.
# The heparinase used in this experiment was purchased from Sigma Co. Ltd. (U.S.A.), wherein the heparinase was isolated from Flavobacterium heparinum.
# [2] = molecular target: T2, heparanase derived from human platelets (Homo sapiens, UniProt Q9Y251); assay: Inhibition of heparanase (3H-heparan sulfate degradation); format: biochemical; conditions: 10 ng heparanase, 30 min at 37° C., pH 5.1; read-out: IC50 against heparanase
# T2 construct: 10 ng of heparanase derived from human platelets; from tissue; host or cells: human platelets
# T2 sequence (Q9Y251 158-543 limits assumed): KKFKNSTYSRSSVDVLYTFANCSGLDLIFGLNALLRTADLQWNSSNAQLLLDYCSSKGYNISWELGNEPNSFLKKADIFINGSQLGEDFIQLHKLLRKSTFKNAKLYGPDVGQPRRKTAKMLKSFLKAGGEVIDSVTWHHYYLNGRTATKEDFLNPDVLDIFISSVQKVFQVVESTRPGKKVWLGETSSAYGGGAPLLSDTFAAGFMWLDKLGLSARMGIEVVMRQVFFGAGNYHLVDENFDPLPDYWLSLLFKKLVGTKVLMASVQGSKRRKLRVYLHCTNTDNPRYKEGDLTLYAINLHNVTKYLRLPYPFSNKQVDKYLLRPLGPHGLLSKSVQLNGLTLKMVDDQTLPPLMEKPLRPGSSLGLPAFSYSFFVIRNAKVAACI
# T2 sequence (Q9Y251 36-109 limits assumed): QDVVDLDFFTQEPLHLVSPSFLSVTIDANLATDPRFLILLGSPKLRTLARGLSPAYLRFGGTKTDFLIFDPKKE
# Source text: After the reaction, the reaction mixture was passed through a column filled with HRG-Sepharose beads and eluted out the degraded heparan sulfate by heparanase to measure the radioactivity.
# T1 sequence (Q05819 22-384): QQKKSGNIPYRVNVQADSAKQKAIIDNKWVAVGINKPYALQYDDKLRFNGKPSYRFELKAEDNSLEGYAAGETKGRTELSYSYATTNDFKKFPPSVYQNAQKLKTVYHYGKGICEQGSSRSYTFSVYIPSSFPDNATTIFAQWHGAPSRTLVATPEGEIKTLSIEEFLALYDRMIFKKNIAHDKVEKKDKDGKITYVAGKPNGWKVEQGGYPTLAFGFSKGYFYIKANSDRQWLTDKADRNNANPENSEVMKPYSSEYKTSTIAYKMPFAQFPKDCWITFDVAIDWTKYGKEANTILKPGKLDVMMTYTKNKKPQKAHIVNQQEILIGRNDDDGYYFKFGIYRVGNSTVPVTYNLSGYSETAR
Structure (SMILES),Relative Rate of Invasion (%) (B16 melanoma cells; 1 μg/mL),No. of Cells Invaded (B16 melanoma cells; 1 μg/mL),Relative Rate of Invasion (%) (B16 melanoma cells; 3 μg/mL),No. of Cells Invaded (B16 melanoma cells; 3 μg/mL),Relative Rate of Invasion (%) (B16 melanoma cells; 10 μg/mL),No. of Cells Invaded (B16 melanoma cells; 10 μg/mL),"inhibition at 10 µg/mL (B16 melanoma cells; Mus musculus, B16, 10 μg/mL, read-out: Inhibitory activity against invasion)","IC50 (B16 melanoma cells; Mus musculus, B16, estimated from Table 4, read-out: IC50 against invasion of B16 melanoma cells)",Physicochemical properties (comparison) (Solubility in solvents),inhibition at 1 µg/mL [1],inhibition at 3 µg/mL [1],inhibition at 10 µg/mL [1],IC50 (heparinase),"Solubility in ethanol, butanol, dimethyl sulfoxide (DMSO) (Solubility in solvents)","Solubility in water, hexane and chloroform (Solubility in solvents)",IC50 [2]
"CCCCCCCCCCCCCCCc1cc(OC2OC(C(=O)OC)C(O)C(O)C2O)cc(O)c1C(=O)Oc1cc(C)c(C(=O)O)c(O)c1 (single isomer, unassigned) [CRM646-B]",89.5%,376.7 ± 19.7,36.9%,155.3 ± 18.6,13.3%,56.0 ± 8.9,> 80%,~2 µg/mL,almost same as in the compound CRM646-A,< 30%,30%,60%,25 µM,–,–,–
CCCCCCCCCCCCCCCc1cc(OC2OC(C(=O)O)C(O)C(O)C2O)cc(O)c1C(=O)Oc1cc(C)c(C(=O)O)c(O)c1 (centres unmarked) [CRM646-A],100.1%,421.0 ± 15.6,91.4%,384.4 ± 9.4,71.5%,300.8 ± 10.2,–,–,–,< 30%,< 30%,30%,3 µM,well dissolved,not dissolved easily,10 µM
